Data: US20220409510A1, “Polypeptides And Methods For Improving Skin Conditions” (Interk Peptide Therapeutics Limited, priority 2018, published 2022)
Non-standard residues stand in square brackets, D forms with d. No end group written: not given here.

Key:
[1] = test system: wound (skin punch, ID 12 mm); assay: Murine wound model, percentage closure of the wound; format: in vivo, ICR mice; settings: topical 10 ug per mouse daily for 10 consecutive days
Source text: FIGS. 1 and 2 illustrate the effect of polypeptides IK34720 (SEQ ID NO: 3—RSKAKNPLYRRRRRRRRR) (FIG. 1) and the dextro-reverso sequence IK236770 (SEQ ID NO: 4—rrrrrrrrrylpnkaksr) (FIG. 2), on wound healing over 10 days in a murine wound model in accordance with the following protocol.
Three groups of 8 male ICR mice with a mean weight of 22 g (±2 g) were used in the present study. The animals were housed in individual cages during the study. Under isoflurane gas anaesthesia, the shoulder and back region of each animal was shaved and a sharp punch (ID 12 mm) was used to induce a wound by removing the skin, including panniculus carnosus and adherent tissues on Day 1.
Following induction of the wound the polypeptides IK34720 and IK236770 were topically administered to the site of the wound at a dosage of 10 μg per animal. […] An additional group which comprised the administration of Phosphate buffered Saline (PBS) at pH 7.4 was used as a negative control.
The wound healing was analysed on Days 5, 7, 9 and 11 by tracing the periphery of the wound onto clear plastic sheets with the wound area calculated by an Image analyzer ProPlus (Media Cybernetics, Version 4.5.0.29. The percentage closure of the wound (%) was calculated. Percentage closure of the wound was determined on 5, 7, 9 and 11. ANOVA and Dunnett's test were applied to test significant significance between the treated groups (peptide and positive control groups) and the negative control group at each time point of measurement. Differences were considered statistically significant at P<0.05, and are indicated by *.

MMP1 = MMP1 expression in human skin explants after UV-irradiation (immunohistochemistry); format: cell-based; settings: 3 hrs post irradiation/treatment; Calcitriol 1 nM; IK34720 50, 250 or 500 uM; FIG. 17
Description: The effect of the polypeptide IK34720 (SEQ ID NO: 3) on MMP-1 activity in human skin was evaluated using the following protocol.
FIGS. 17 and 18 illustrate the effect of the polypeptide IK34720 (SEQ ID NO: 3) on MMP1 expression, in accordance with the following protocol.
Human skin (2× human explant tissues) removed at elective surgery was cleaned, dissected and cut into pieces of approx. 5mm×5mm. Each piece was placed in a well of a 96 well plate, with individual plates prepared to assess the effects 3 hrs post treatment. Skin was subjected to UV-radiation from solar-simulated UV source for 1.5 h (UVR), or non-irradiation (SHAM), and treated immediately after with a vehicle control, Calcitriol (1 nM) or the polypeptide IK34720 (SEQ ID NO: 3) at concentrations of 50 μM, 250 μM or 500 uM. In FIG. 17, IK50, IK250 and IK500 as μM concentrations refers to 15 μg, 75 μg and 150 μg of IK34720 per 120 μL culture medium/explant, respectively.
Samples harvested at 3 hrs were fixed, sectioned, immunohistochemically stained for MMP1 and quantified for MMP1 expression, by expressing epidermal area stained for MMP1 as a function of total epidermal area examined.

[2] = test system: CPDs in human skin explants; assay: CPD formation in human skin explants after UV-irradiation; format: cell-based; settings: 3 hrs post irradiation/treatment; Calcitriol 1 nM; IK34720 50, 250 or 500 uM; FIG. 12
Description: Human skin removed at elective surgery was cleaned, dissected and cut into pieces of approx. 5 mm×5 mm. Each piece was placed in a well of a 96 well plate, with individual plates prepared to assess the effects 3 hrs post treatment. All samples were performed in triplicate for each treatment. Skin was subjected to UV-radiation from solar-simulated UV source for 1.5 h (UVR), or non-irradiation (SHAM). Given that human skin is thicker than mouse skin, human skin explants were exposed to a radiation dose three times higher than that used for mouse skin, i.e., 20 J/cm2 versus 7 J/cm2, respectively, and the output spectrum of the laboratory solar simulator has previously been reported (Rybchyn MS et al, J Invest Dermatol. 2018 May; 138(5):1146-1156) and treated immediately after with a vehicle control, Calcitriol (1 nM) or the polypeptide IK34720 (SEQ ID NO: 3) at concentrations of 50 μM, 250 μM or 500 uM.
Samples harvested at 3 hrs were fixed, section, stained and quantified as described in Example 5.

dermal fibroblasts = assay: TBARS lipid peroxidation assay in UV irradiated dermal fibroblasts; format: cell-based; settings: highest concentration (5 μM) of peptide; FIG. 19
Description: The ability of the polypeptide RSKAKNPLYRRRRRRRRR to alter UV-induced oxidative damage of cell-derived lipids was examined using the TBARS thiobarbituric acid-reactive substances (TBARS) lipid peroxidation assay.
After irradiation or sham-irradiation of dermal fibroblasts, supernatants (900 μL) were collected. In brief, 90 μL of butylated hydroxytoluene (2% w/w in ethanol) was added and samples kept frozen (−20° C.) until the TBARS assay. Petri dishes were washed twice with 1 mL of HBSS, cells scraped in 600 μL of water and 60 μL of 0.5% aqueous Triton X100 added to this solution, for protein determination carried out by the Lowry method (Lowry OH et al, J. Biol. Chem., 1951, 193:265-275). TBARS were fluorometrically assayed as described (Morlière P et al, Biochim. Biophys. Acta, 1991, 1084:261-268). Briefly, thawing samples were heated in the presence of thiobarbituric acid in acidic conditions, and TBARS extracted with 1-butanol and fluorometrically quantified (λexc=515 nm and λem=550 nm). Tetraethoxypropane, which quantitatively yields the malondialdehyde-thiobarbituric acid adduct in the assay conditions, was used for calibration. TBARS values, expressed in malondialdehyde (MDA) equivalents, were normalized to the cell protein for each Petri dish. Each TBARS determination was performed in triplicate (e.g., with three Petri dishes per data point).

[3] = molecular target: T1, polypeptide IK34720 (RSKAKNPLYRRRRRRRRR)
T1 chain: RSKAKNPLYRRRRRRRRR

CCNC(=O)[C@H]1O[C@@H](n2cnc3c(N)nc(NCCc4ccc(CCC(=O)O)cc4)nc32)[C@H](O)[C@@H]1O [CGS-21680, reference compound]
wound closure percentage ([1]; Day 5 to Day 11, vs negative control (PBS)): increase wound healing compared to the negative control

C=C1/C(=C\C=C2/CCC[C@]3(C)[C@@H]([C@H](C)CCCC(C)(C)O)CC[C@@H]23)C[C@@H](O)C[C@@H]1O [Calcitriol, 1,25-dihydroxyvitamin D3, reference compound]
cells staining for MMP-1 (MMP1): fewer stained cells
cells having CPDs (stained cells) [2]: fewer stained cells
significant difference in TRS (TBA reactive substances) between Sham and UV irradiation (dermal fibroblasts): not seen

rrrrrrrrrylpnkaksr ([dR][dR][dR][dR][dR][dR][dR][dR][dR][dY][dL][dP][dN][dK][dA][dK][dS][dR]; also: retro-inverso) [IK236770]
wound healing (wound closure % percentage) ([1]; day 5, vs negative control): statistically significant increase in wound healing

B1: Human rheumatoid synovial fibroblast MMP-1 proenzyme, activated with APMA (protein)
chain: FVLTEGNPRWEQTHLTYRIENYTPDLPRADVDHAIEKAFQLWSNVTPLTFTKVSEGQADIMISFVRGDHRDNSPFDGPGGNLAHAFQPGPGIGGDAHFDEDERWTNNFREYNLHRVAAHELGHSLGLSHSTDIGALMYPSYTFSGDVQLAQDDIDGIQAIYGRSQNPVQPIGPQTPKACDSKLTFDAITTIRGEVMFFKDRFYMRTNPFYPEVELNFISVFWPQLPNGLEAAYEFADRDEVRFFKGNKYWAVQGQNVLHGYPKDIYSSFGFPRTVKHIDAALSEENTGKTYFFVANKYWRYDEYKRSMDPGYPKMIAHDFPGIGHKVDAVFMKDGFFYFFHGTRQYKFDPKTKRILTLQKANSWFNCRKN
MMP-1 activity in vitro: amount of Mca-Pro-Leu-Gly formed from the fluorogenic substrate Mca-Pro-Leu-Gly-Leu-Dap-Ala-Arg, read spectrofluorimetrically at 340 nm/400 nm [3]: inhibits MMP-1 activation in a dose dependent manner
